The values below come from article PMC9516332 (Frontiers in Oncology, 2022).

Experiment in all cases: Kinase panel profiling at 1 µmol/L (MSA or IMAP), percentage inhibition
Assay type in all cases: biochemical

Test [1] deals with T1, panel of 255 wild-type kinases (Homo sapiens, UniProt O14920).
T1 sequence (O14920 1-756): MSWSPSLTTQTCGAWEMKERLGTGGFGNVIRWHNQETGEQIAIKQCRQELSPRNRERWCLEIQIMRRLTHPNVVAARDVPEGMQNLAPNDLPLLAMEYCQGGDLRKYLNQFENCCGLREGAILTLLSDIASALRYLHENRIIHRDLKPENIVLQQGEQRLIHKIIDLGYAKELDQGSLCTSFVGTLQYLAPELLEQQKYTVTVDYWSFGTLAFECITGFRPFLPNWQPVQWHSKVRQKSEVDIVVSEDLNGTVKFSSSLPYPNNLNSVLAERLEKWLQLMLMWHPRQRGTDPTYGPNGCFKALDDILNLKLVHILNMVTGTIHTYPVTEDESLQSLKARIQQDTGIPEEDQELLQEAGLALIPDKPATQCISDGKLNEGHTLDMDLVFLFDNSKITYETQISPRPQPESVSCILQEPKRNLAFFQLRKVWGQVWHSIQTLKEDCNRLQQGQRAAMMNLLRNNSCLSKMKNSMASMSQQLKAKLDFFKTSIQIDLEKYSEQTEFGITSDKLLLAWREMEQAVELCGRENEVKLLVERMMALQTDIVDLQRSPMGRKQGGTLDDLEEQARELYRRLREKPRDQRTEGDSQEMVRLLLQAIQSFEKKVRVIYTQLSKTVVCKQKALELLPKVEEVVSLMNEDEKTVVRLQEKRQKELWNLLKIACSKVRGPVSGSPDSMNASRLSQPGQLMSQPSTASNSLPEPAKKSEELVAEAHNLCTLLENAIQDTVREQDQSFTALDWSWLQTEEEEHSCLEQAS
The following applies: read-out: %-inhibition at 1 µmol/L, IKKβ.

Test [2] deals with panel of 255 wild-type kinases (Homo sapiens, UniProt O96017). The note with it: read-out: %-inhibition CHK2.
Test [3] addresses panel of 255 wild-type kinases (Homo sapiens, UniProt P09769). The note with it: read-out: %-inhibition at 1 µmol/L, FGR.
In test [4] the target is panel of 255 wild-type kinases (Homo sapiens, UniProt P51617). The following applies: read-out: %-inhibition at 1 µmol/L, IRAK1.
Test [5] concerns the target T2, panel of 255 wild-type kinases (Homo sapiens, UniProt Q05513).
T2 sequence (Q05513 1-592): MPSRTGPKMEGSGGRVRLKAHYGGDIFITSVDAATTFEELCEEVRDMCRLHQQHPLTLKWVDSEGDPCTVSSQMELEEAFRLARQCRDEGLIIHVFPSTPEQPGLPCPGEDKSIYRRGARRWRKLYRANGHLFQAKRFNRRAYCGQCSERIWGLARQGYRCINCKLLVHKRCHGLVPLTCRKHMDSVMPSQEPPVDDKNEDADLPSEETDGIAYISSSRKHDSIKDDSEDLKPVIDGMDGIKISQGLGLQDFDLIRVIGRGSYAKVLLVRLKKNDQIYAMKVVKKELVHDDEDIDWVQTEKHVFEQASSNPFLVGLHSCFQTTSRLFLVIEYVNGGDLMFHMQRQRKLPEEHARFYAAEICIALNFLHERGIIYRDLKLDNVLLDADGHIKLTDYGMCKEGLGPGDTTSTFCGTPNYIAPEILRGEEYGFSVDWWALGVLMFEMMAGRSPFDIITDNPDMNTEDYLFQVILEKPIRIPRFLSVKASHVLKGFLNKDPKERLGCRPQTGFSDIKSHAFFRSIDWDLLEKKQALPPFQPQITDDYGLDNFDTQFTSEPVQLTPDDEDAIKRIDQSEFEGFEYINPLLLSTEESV
The following applies: read-out: %-inhibition at 1 µmol/L, PKCζ.

In test [6] the target is panel of 255 wild-type kinases (Homo sapiens, UniProt Q13557). The following applies: read-out: %-inhibition CaMK2δ.
For test [7], the target named is T3, panel of 255 wild-type kinases (Homo sapiens, UniProt Q8IW41).
T3 sequence (Q8IW41 1-473): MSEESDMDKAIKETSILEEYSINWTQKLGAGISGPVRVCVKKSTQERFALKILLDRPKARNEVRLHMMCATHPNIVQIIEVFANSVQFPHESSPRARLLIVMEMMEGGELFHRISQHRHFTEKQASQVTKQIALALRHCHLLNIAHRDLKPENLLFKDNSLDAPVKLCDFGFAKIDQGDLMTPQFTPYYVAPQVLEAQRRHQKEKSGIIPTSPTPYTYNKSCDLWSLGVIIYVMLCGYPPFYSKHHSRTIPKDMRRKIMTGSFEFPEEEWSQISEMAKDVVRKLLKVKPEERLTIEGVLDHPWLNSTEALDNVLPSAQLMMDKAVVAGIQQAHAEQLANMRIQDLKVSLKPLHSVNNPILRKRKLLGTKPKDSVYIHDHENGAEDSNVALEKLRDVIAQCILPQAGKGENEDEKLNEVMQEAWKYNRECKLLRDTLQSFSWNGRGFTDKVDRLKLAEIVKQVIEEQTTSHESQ
The following applies: read-out: %-inhibition, MAPKAPK5.

For test [8], the target named is panel of 255 wild-type kinases (Homo sapiens, UniProt Q9BUB5). The following applies: read-out: %-inhibition, MNK1.
[9] abbreviates: kinase IKKβ, 1 µmol/L single concentration.
[10] abbreviates: CHK2 kinase assay, 1 µmol/L single concentration.
Setting [11] is: kinase FGR, 1 µmol/L single concentration.
[12] abbreviates: kinase IRAK1, 1 µmol/L single concentration.
Where [13] appears, read: kinase PKCζ, 1 µmol/L single concentration.
The mark [14] stands for this setting: CaMK2δ kinase assay, 1 µmol/L single concentration.
Where [15] appears, read: MAPKAPK5, 1 µmol/L single concentration.
Setting [16] is: MNK1, 1 µmol/L single concentration.

Where two headings read alike, the source gives them in different places.

`Cn1cc(-c2cc3c(N4CCN(c5ncc([C@@](C)(N)c6ccc(F)cc6)cn5)CC4)ncnn3c2)cn1` [avapritinib]: the inhibition at 1 µM in test [1] (setting [9]) was 0.049%; in test [2] (setting [10]), 5.47%; in test [3] (setting [11]) it was 66%; in test [4] (setting [12]), 8%; in test [5] (setting [13]), -0.226%; in test [6] (setting [14]) it was -2.56%. The inhibition at 1 µM in test [7] (setting [15]) came out at 2%; in test [8] (setting [16]), 72%.

Regarding `C[C@H](Nc1ncnc2nc[nH]c12)c1cc2cccc(Cl)c2c(=O)n1-c1ccccc1` [duvelisib], the inhibition at 1 µM is 0.466% in test [1] (setting [9]); -3.49% in test [2] (setting [10]); 3.24% in test [3] (setting [11]); -8% in test [4] (setting [12]); 16% in test [5] (setting [13]); 4% in test [6] (setting [14]). Moreover, the inhibition at 1 µM turned out to be 0.859% in test [7] (setting [15]) and 0.446% in test [8] (setting [16]).

Take `COc1cc2ncnc(Nc3ccc(F)c(Cl)c3)c2cc1NC(=O)/C=C/CN1CCCCC1` [dacomitinib]: the inhibition at 1 µM in test [1] (setting [9]) came out at 6%; in test [2] (setting [10]) it was 23%; in test [3] (setting [11]), 58%; in test [4] (setting [12]), 76%; in test [5] (setting [13]), 24%; in test [6] (setting [14]), 9%. Besides, the inhibition at 1 µM in test [7] (setting [15]) is -4.47%; in test [8] (setting [16]) it was 91%.

Turning to `CCN1CCN(c2ccc(Nc3cc(N(C)C(=O)Nc4c(Cl)c(OC)cc(OC)c4Cl)ncn3)cc2)CC1` [infigratinib], the inhibition at 1 µM in test [1] (setting [9]) was 0.304%; in test [2] (setting [10]) it was -0.482%; in test [3] (setting [11]) it was 46%; in test [5] (setting [13]), 3.18%; in test [6] (setting [14]), -1.48%; in test [7] (setting [15]), -6%. For the same molecule, the inhibition at 1 µM in test [8] (setting [16]) was -1.75%.

With `Cn1cnc2c(F)c(Nc3ccc(Br)cc3Cl)c(C(=O)NOCCO)cc21` [selumetinib], the inhibition at 1 µM was 1.34% in test [1] (setting [9]); 4% in test [2] (setting [10]); -0.332% in test [3] (setting [11]); -2.71% in test [4] (setting [12]); 1% in test [5] (setting [13]); -3% in test [6] (setting [14]). Further, the inhibition at 1 µM was -3.2% in test [7] (setting [15]) and -6.56% in test [8] (setting [16]).

In the case of `CNC(=O)c1ccc(-c2cnc3ncc(Cc4ccc5ncccc5c4)n3n2)cc1F` [capmatinib], the inhibition at 1 µM is -0.588% in test [1]; -1.52% in test [2]; -1.79% in test [3]; 35% in test [4]; 0.759% in test [5]; -1.07% in test [6]. Further, the inhibition at 1 µM in test [7] was -7%; in test [8], -1%.

For `COC(=O)N[C@@H](C)CNc1nccc(-c2cn(C(C)C)nc2-c2cc(Cl)cc(NS(C)(=O)=O)c2F)n1` [encorafenib], the inhibition at 1 µM is 0.644% in test [1] (setting [9]); 7% in test [2] (setting [10]); 1.37% in test [3] (setting [11]); 21% in test [4] (setting [12]); 19% in test [5] (setting [13]); -2.79% in test [6] (setting [14]). Also, the inhibition at 1 µM is -4% in test [7] (setting [15]) and 4.33% in test [8] (setting [16]).

As for `Cc1cc(Nc2ncnc3ccc(NC4=NC(C)(C)CO4)cc23)ccc1Oc1ccn2ncnc2c1` [tucatinib], the inhibition at 1 µM in test [1] (setting [9]) was 1%; in test [2] (setting [10]), 4%; in test [3] (setting [11]), 6%; in test [4] (setting [12]) it was 4.63%; in test [5] (setting [13]) it was -1.11%; in test [6] (setting [14]) it was -3%. The inhibition at 1 µM in test [7] (setting [15]) was 2%; in test [8] (setting [16]), -1.41%.

Take `C=CC(=O)N1CCC([C@@H]2CCNc3c(C(N)=O)c(-c4ccc(Oc5ccccc5)cc4)nn32)CC1` [zanubrutinib]: the inhibition at 1 µM in test [1] (setting [9]) was -0.69%; in test [2] (setting [10]), 4%; in test [3] (setting [11]), 37%; in test [4] (setting [12]) it was -2.53%; in test [5] (setting [13]) it was 0.367%; in test [6] (setting [14]), 3%. For the same molecule, the figures for the inhibition at 1 µM in test [7] (setting [15]) and in test [8] (setting [16]) were -3.6% and -4.39%, respectively.

On to `Cn1cnc2c(F)c(Nc3ccc(Br)cc3F)c(C(=O)NOCCO)cc21` [binimetinib], for which the inhibition at 1 µM in test [1] (setting [9]) is -4%; in test [2] (setting [10]), 4.21%; in test [3] (setting [11]), 0.0227%; in test [4] (setting [12]) it was 2.19%; in test [5] (setting [13]), 10%; in test [6] (setting [14]), -4%. The inhibition at 1 µM in test [7] (setting [15]) is -4.73%; in test [8] (setting [16]), 1.8%.

As for `COc1ccc(CN2C3CC2CN(c2ccc(-c4cc(OCC(C)(C)O)cn5ncc(C#N)c45)cn2)C3)cn1` [selpercatinib], the inhibition at 1 µM in test [1] (setting [9]) was -2.15%; in test [2] (setting [10]), 80%; in test [3] (setting [11]), 51%; in test [4] (setting [12]) it was 5%; in test [5] (setting [13]), -1%; in test [6] (setting [14]), 1.36%. The inhibition at 1 µM was -1.78% in test [7] (setting [15]) and 42% in test [8] (setting [16]).

For `CCN1C(=O)N(c2c(F)c(OC)cc(OC)c2F)Cc2cnc3[nH]c(CN4CCOCC4)cc3c21` [pemigatinib], the inhibition at 1 µM was -1.22% in test [1] (setting [9]); 3% in test [2] (setting [10]); 17% in test [3] (setting [11]); -5.31% in test [4] (setting [12]); -0.0817% in test [5] (setting [13]); 11% in test [6] (setting [14]). For the same molecule, the inhibition at 1 µM was 2.28% in test [7] (setting [15]) and -4.63% in test [8] (setting [16]).

For `CN1CCN(c2ccc(C(=O)Nc3n[nH]c4ccc(Cc5cc(F)cc(F)c5)cc34)c(NC3CCOCC3)c2)CC1` [entrectinib], the inhibition at 1 µM in test [1] (setting [9]) was -0.451%; in test [2] (setting [10]), 31%; in test [3] (setting [11]) it was 95%; in test [4] (setting [12]), 16%; in test [5] (setting [13]) it was 17%; in test [6] (setting [14]), 28%. For the same molecule, the inhibition at 1 µM in test [7] (setting [15]) was 0.65%; in test [8] (setting [16]), -1%.
